Test results from ChEMBL document CHEMBL1201862, “PubChem BioAssay data set” (2004).
The source made the active and inactive calls.

Key:
[1] = target: Beta-galactosidase (Escherichia coli, UniProt Q8VNN2); experiment: PubChem AID 485352; format: functional
[2] = target: Type-1 angiotensin II receptor (Homo sapiens, UniProt P30556); experiment: AT1 receptor antagonists, dose response, selectivity assay for APJ receptor antagonist project, cell-based, uHTS hits (AID 463214); format: functional;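 also: antagonist potency against angiotensin II stimulated AT1 response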
[3] = tested on: HeLa; experiment: HeLa cell cytotoxicity, dose response, cytotoxicity control for MITF activator project, CellTiter-Glo luminescence, cherry-pick samples (AID 540259); format: functional, cell-based; settings: Homo sapiens
[4] = target: T1, Sentrin-specific protease 6 (Homo sapiens, UniProt Q9GZR1); format: functional
T1 sequence (Q9GZR1 whole entry): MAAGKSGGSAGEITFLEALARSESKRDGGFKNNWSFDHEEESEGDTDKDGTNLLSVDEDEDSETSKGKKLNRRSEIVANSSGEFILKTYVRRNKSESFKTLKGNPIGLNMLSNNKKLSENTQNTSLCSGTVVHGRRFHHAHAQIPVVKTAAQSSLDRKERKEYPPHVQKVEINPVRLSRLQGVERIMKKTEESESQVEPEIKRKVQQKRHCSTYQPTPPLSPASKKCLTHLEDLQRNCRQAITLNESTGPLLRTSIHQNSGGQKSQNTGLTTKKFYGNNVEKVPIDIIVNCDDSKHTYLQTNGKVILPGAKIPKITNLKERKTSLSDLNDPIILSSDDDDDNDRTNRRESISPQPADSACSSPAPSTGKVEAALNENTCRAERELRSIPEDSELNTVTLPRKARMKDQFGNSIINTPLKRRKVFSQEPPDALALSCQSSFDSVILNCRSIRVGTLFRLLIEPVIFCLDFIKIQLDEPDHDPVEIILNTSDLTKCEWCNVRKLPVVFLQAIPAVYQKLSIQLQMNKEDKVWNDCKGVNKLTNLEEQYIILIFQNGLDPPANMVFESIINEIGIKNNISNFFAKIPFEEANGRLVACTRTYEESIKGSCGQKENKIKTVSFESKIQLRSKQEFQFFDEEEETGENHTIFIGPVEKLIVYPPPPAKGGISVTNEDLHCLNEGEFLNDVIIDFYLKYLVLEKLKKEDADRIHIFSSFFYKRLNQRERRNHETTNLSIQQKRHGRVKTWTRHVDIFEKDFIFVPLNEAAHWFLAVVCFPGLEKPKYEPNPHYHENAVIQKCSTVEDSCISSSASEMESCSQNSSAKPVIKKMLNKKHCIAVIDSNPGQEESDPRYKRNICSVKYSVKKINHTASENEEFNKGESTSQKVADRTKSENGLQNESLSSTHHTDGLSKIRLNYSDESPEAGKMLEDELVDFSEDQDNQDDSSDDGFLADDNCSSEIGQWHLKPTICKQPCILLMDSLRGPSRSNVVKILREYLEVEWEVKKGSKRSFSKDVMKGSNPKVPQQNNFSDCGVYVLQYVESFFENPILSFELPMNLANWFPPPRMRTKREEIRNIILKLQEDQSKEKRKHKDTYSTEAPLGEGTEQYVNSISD

[5] = target: T2, Caspase-3 (Homo sapiens, UniProt P42574); experiment: SAR Analysis of small molecule inhibitors of Sentrin-specific proteases (SENPs) using a Caspase-3 Selectivity assay. [Related pubchem assays (depositor defined):AID2540, AID2599, AID434973, AID489001]; format: functional
T2 sequence (P42574 whole entry): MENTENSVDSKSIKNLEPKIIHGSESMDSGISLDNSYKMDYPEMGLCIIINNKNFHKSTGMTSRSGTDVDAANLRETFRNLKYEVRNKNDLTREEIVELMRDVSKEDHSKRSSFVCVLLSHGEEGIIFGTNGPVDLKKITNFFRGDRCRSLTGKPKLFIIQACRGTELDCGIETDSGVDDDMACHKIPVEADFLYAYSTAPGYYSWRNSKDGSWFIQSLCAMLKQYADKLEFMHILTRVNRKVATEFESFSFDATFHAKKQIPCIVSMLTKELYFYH

[6] = target: T3, Sentrin-specific protease 7 (Homo sapiens, UniProt Q9BQF6); experiment: SENP7 protease inhibitors, SAR follow-up, biochemical, luminescence (AID 504497); format: functional
T3 sequence (Q9BQF6 whole entry): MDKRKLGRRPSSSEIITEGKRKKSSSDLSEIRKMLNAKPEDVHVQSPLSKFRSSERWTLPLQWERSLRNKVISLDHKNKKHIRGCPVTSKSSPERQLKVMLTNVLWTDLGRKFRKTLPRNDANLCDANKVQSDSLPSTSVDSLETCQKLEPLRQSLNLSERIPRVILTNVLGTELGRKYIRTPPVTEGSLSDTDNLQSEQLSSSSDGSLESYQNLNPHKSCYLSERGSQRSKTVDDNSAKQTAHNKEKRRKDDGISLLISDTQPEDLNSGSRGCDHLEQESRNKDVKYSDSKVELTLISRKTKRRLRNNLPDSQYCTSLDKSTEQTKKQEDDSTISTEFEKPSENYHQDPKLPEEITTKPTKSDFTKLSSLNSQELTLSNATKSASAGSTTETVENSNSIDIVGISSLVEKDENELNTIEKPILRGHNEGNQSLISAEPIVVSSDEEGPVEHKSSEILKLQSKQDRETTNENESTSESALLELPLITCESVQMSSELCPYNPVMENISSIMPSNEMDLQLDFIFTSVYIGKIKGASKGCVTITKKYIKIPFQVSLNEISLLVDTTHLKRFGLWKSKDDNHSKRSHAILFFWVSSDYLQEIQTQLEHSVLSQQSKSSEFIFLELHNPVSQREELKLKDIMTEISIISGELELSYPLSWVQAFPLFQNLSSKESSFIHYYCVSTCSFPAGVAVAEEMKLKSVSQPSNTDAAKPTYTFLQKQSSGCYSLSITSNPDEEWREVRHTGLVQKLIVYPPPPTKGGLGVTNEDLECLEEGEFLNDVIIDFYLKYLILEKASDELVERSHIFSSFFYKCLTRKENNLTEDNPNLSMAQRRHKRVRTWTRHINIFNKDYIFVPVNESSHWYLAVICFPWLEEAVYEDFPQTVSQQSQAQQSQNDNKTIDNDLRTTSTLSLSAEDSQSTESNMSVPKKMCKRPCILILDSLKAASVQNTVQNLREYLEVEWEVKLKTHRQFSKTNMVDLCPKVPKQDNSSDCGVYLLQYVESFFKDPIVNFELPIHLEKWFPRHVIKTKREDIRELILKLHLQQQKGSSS

[7] = target: T4, Sentrin-specific protease 8 (Homo sapiens, UniProt Q96LD8); format: functional;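 also: luminescence read-out of SENP8 inhibition, dose-response confirmation following an ultra-high-throughput screen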
T4 sequence (Q96LD8 whole entry): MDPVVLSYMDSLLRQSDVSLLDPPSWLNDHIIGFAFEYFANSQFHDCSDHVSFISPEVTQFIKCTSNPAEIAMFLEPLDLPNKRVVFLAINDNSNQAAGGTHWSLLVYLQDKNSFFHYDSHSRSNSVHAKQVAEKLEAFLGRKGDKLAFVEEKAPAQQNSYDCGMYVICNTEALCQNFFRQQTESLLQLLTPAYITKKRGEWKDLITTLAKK

[8] = target: T3, Sentrin-specific protease 7; format: functional
[9] = target: T4, Sentrin-specific protease 8; experiment: SENP8 protease inhibitors, SAR follow-up, biochemical, luminescence (AID 504501); format: functional
[10] = target: T2, Caspase-3; format: functional
[11] = target: T1, Sentrin-specific protease 6; experiment: SAR Analysis of small molecule inhibitors of Sentrin-specific protease 6 (SENP6) using a Luminescent assay. [Related pubchem assays (depositor defined):AID2582, AID2599]; format: functional
[12] = Vero E6 cell cytotoxicity, dose response, cytotoxicity control for non-replicating M. tuberculosis project, secondary assay (AID 492998); format: functional, VeroE6; settings: Vero C1008
[13] = cells; format: functional
[14] = C. albicans growth with fluconazole, confirmation, fluorescence, retest (AID 2467); format: functional, cell-based
[15] = NIH-3T3 fibroblast cytotoxicity, dose response, cytotoxicity control, cell-based, fluorescence, Alamar Blue, secondary assay (AID 2327); format: functional;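 also: NIH-3T3 mouse fibroblasts cultured with fluconazole at 8 µg/mL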
[16] = HepG2 cell cytotoxicity, dose response, cytotoxicity control for non-replicating M. tuberculosis project (AID 489018); format: functional; settings: Mycobacterium tuberculosis
[17] = target: T5, Serine/threonine-protein phosphatase (Candida dubliniensis (strain CD36 / CBS 7987 / NCPF 3949 / NRRLY-17841) (Yeast), UniProt B9W6M3); experiment: calcineurin pathway inhibitors in yeast reporter, dose response, S. cerevisiae, CDRE-lacZ, luminescence, secondary (AID 2388); format: functional, cell-based;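 also: yeast reporter cells carrying a calcineurin-responsive lacZ construct stimulated with calcium chloride; luminescent beta-galactosidase reporter signal in whole cells rather than isolated phosphatase activity; potency for inhibition where a drop in reporter signal means calcineurin blockade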
T5 sequence (B9W6M3 whole entry): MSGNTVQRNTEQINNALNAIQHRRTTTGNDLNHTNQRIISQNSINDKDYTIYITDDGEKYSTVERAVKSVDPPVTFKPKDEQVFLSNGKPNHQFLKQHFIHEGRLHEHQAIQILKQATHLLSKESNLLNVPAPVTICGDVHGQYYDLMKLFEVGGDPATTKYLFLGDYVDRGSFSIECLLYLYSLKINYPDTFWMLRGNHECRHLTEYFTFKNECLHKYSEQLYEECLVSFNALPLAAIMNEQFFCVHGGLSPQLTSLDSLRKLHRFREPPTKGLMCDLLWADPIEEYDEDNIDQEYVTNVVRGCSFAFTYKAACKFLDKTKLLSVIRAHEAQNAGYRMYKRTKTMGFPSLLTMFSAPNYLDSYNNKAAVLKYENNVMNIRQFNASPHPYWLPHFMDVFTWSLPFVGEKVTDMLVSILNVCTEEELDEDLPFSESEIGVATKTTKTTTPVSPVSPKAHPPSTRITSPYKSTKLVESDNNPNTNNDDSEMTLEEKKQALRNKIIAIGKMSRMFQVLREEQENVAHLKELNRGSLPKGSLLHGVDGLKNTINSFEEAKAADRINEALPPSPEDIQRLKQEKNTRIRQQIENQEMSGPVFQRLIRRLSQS

[18] = target: ATP-dependent molecular chaperone HSP82 (Candida albicans (strain WO-1) (Yeast), UniProt C4YTQ8); experiment: loss of DOC-induced GRE-beta-galactosidase reporter signal, dose response, Hsp90 inhibitor project, S. cerevisiae, luminescence (AID 2400); format: functional, cell-based;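 also: beta-galactosidase luminescence from glucocorticoid response element reporter as proxy for Hsp90 function; inhibitor potency where signal loss means Hsp90 inhibition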
[19] = tested on: Streptococcus; experiment: Group A Streptococcus viability loss, dose response, counter-screen for streptokinase expression inhibitor project, luminescence, BacTiterGlo (AID 1915); format: functional, organism-based;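 also: potency for reduction of bacterial viability or growth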
[20] = THP-1 cell cytotoxicity, dose response, cytotoxicity control for non-replicating M. tuberculosis project (AID 489025); format: functional
[21] = tested on: Streptococcus sp. 'group A'; experiment: growth inhibition of control SK(-) GAS strain, dose response, counter-screen for streptokinase expression inhibitor project, luminescence, kanamycin, BacTiterGlo, confirmation (AID 1900); format: functional, organism-based
[22] = inhibitors of SNCA 5'UTR-driven reporter translation, confirmation, H4 neuroglioma cells, luminescence (AID 1988); format: functional, cell-based
[23] = target: T6, High affinity choline transporter 1 (Homo sapiens, UniProt Q9GZV3); experiment: CHT inhibitors, dose response, cell-based, 5-point CRC, membrane potential dye (AID 504840); format: functional
T6 sequence (Q9GZV3 whole entry): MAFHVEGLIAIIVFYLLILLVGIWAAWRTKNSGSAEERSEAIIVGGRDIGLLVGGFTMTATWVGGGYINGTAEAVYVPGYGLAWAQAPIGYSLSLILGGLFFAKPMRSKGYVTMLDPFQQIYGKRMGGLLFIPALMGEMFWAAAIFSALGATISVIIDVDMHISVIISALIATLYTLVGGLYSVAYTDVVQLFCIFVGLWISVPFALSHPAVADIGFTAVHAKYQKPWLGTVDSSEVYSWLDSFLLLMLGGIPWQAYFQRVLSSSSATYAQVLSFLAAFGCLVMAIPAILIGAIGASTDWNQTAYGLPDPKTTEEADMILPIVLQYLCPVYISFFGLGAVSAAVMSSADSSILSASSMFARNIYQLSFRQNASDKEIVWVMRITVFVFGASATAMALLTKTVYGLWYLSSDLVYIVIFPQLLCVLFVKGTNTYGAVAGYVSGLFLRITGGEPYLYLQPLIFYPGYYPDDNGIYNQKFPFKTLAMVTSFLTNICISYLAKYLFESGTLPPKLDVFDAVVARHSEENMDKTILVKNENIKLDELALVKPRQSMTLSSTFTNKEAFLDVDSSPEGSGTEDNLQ

[24] = inhibitors of firefly luciferase expression or activity, dose response, H4 neuroglioma cells, luminescence (AID 1990); format: functional, cell-based
[25] = Luminescence Cell-Based Dose Response HTS to Identify Inhibitors of 5'UTR Stem-Loop Driven Prion Protein mRNA Translation in H4 Neuroglioblastoma Cells. [Related pubchem assays: 1827 (Project Summary), 1813 (Primary HTS)]; format: functional
[26] = target: Voltage-dependent T-type calcium channel subunit alpha-1H (Homo sapiens, UniProt O95180); format: functional;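 also: channel activity triggered by adding a high calcium stimulation buffer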
Voltage-dependent T-type calcium channel subunit alpha-1H, sequence (O95180 whole entry): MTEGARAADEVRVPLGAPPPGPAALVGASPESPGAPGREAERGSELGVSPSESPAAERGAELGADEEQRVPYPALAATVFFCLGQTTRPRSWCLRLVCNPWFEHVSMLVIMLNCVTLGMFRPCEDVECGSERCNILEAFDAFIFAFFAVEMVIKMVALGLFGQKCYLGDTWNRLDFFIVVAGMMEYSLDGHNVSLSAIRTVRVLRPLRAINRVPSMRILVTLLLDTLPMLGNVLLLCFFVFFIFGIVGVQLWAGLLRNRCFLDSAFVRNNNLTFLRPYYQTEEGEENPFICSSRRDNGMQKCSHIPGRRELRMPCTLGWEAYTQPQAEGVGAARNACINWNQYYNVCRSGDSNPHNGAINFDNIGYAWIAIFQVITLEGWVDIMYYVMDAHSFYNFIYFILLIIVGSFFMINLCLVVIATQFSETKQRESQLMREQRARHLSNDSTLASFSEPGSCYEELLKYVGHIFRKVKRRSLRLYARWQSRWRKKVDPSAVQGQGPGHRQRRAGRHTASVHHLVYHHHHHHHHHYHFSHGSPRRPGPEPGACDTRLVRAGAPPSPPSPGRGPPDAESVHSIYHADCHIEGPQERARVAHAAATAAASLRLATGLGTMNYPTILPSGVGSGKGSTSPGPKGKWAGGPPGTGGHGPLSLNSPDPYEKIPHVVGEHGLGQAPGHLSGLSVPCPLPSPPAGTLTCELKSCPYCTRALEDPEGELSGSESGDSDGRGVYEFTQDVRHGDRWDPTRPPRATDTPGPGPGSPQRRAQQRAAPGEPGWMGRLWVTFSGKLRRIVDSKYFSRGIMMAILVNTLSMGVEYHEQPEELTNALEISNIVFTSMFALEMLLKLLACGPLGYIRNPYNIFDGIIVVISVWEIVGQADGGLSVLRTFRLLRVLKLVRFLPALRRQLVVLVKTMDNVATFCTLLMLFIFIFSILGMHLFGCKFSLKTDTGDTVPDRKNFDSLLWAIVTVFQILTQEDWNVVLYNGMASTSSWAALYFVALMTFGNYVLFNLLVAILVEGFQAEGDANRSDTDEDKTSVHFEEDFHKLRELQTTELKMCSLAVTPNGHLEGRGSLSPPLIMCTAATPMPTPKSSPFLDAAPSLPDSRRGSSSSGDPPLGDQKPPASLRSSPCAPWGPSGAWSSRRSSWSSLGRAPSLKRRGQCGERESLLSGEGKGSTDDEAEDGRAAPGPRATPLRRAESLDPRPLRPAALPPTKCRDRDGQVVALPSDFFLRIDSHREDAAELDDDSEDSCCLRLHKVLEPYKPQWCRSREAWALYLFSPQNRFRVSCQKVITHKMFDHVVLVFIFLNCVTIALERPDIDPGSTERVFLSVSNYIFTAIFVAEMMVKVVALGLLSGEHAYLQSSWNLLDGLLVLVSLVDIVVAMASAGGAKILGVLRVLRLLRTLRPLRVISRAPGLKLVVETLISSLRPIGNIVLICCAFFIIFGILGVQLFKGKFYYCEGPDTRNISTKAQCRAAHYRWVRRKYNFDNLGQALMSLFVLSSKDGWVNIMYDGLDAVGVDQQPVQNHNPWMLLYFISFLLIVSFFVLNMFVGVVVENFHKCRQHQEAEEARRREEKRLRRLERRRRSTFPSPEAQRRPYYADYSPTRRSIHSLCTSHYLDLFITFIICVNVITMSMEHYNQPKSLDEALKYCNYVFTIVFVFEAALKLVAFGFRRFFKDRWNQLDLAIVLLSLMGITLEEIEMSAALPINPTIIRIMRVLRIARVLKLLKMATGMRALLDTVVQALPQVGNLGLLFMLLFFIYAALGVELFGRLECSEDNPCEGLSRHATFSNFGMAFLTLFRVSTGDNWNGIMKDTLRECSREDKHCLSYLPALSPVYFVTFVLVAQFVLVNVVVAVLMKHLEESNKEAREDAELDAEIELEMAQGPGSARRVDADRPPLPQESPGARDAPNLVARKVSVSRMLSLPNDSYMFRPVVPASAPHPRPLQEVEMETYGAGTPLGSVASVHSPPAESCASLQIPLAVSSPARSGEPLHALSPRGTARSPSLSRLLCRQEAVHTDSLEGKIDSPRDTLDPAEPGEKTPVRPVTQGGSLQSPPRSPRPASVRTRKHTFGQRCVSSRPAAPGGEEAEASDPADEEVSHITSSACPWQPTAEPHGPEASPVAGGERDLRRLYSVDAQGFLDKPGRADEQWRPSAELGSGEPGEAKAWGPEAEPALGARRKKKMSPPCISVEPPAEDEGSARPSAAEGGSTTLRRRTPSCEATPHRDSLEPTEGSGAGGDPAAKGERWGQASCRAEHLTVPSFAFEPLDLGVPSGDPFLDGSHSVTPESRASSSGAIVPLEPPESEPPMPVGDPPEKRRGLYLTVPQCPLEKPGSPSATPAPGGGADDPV

ATP-dependent molecular chaperone HSP82, sequence (C4YTQ8 whole entry): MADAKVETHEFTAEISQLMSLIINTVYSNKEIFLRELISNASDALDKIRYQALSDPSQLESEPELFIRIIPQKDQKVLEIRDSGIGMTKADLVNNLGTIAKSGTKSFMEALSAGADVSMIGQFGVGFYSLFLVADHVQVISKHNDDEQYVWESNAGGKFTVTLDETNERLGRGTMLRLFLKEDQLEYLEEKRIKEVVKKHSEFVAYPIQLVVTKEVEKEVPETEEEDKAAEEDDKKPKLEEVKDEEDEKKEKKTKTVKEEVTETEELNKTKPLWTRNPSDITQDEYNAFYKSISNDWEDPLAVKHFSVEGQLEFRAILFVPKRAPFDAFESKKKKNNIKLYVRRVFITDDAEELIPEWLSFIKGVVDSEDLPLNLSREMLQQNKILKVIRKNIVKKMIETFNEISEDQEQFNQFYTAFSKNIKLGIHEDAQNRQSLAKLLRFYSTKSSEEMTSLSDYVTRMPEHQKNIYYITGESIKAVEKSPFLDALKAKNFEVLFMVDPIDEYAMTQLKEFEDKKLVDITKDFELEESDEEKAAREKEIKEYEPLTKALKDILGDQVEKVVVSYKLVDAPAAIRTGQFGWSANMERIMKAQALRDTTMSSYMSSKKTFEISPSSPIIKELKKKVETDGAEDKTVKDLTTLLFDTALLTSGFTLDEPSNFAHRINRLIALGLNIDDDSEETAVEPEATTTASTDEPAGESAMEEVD
Beta-galactosidase, sequence (Q8VNN2 whole entry): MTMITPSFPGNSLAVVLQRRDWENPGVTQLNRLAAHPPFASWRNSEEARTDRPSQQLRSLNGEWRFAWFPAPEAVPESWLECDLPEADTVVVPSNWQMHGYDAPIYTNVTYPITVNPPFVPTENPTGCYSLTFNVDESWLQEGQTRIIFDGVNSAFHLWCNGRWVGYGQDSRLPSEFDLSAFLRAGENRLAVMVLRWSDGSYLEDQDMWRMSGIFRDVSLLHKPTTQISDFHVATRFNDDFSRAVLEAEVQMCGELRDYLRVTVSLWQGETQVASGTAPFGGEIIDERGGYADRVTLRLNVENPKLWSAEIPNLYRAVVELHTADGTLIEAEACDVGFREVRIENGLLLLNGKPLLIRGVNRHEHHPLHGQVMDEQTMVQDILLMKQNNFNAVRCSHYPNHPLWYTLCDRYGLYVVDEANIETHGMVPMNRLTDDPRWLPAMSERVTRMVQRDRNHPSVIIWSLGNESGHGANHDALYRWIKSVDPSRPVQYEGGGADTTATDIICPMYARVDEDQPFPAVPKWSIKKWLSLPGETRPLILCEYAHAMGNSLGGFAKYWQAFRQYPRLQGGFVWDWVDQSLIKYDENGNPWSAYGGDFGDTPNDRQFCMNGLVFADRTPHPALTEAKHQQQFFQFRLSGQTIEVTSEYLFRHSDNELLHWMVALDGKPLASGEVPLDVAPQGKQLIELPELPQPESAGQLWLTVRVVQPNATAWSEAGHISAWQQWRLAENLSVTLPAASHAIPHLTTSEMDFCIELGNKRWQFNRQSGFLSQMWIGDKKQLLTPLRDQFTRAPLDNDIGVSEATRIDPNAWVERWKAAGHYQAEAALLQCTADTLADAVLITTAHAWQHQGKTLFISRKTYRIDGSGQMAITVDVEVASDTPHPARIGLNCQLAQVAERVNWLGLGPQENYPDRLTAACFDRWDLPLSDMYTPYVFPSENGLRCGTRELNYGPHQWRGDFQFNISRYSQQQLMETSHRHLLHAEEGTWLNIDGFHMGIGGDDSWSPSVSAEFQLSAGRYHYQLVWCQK
Type-1 angiotensin II receptor, sequence (P30556 whole entry): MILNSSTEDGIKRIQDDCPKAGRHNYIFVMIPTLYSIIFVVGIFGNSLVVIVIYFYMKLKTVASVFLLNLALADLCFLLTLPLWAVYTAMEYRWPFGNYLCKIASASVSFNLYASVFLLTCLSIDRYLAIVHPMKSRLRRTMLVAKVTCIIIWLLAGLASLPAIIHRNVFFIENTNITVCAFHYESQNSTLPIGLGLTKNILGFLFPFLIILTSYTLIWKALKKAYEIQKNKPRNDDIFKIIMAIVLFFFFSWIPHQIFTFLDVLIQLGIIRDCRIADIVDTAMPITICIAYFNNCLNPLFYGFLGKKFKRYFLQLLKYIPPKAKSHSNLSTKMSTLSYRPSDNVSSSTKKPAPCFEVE

For `O=C(NNc1ncc(C(F)(F)F)cc1Cl)c1c(Cl)cccc1Cl`, the EC50 [1] was > 40 µM (inactive) and the IC50 [2] was > 40 µM (not active).
For `Fc1ccccc1COc1ccc(C(=S)N2CCCC2)cc1`, the AC50 [3] was 162 µM (active), the IC50 [4] was 17.1 µM (active) and the IC50 [5] was 0.742 µM (active). The IC50 [6] was 1.64 µM (active), the IC50 [7] was 3.21 µM (active) and the IC50 [8] was 10.9 µM (active). For the same molecule, the IC50 [9] was 1.55 µM (active), the IC50 [10] was 9.99 µM (active) and the IC50 [11] was 1.17 µM (active).
With `O=C(Nc1nnc(C2COc3ccccc3O2)o1)c1ccc(F)cc1` (stereo not drawn) the CC50 [12] was 11.4 µM (active), the IC50 [13] was 1.49 µM (active) and the EC50 [14] was 0.968 µM (active). For the same molecule, the EC50 [15] was 25.4 µM (inconclusive), the CC50 [16] was 19.9 µM (active) and the EC50 [17] was > 180 µM (inactive). For the same molecule, the EC50 [18] was > 150 µM (inactive), the EC50 [19] was 11.4 µM (active) and the CC50 [20] was 15.7 µM (active). For the same molecule, the EC50 [21] was 0.98 µM (active).
With `Cc1ccccc1C(=O)O/N=C/c1c(N2CCOCC2)n(C)c2ccccc12` the EC50 [22] was 4.88 µM (active), the IC50 [23] was 21.6 µM (active) and the EC50 [24] was 0.455 µM (active). The EC50 [14] was 0.212 µM (active), the EC50 [15] was > 160 µM (inactive) and the EC50 [25] was 11.8 µM (active). For the same molecule, the EC50 [17] was > 180 µM (inactive) and the EC50 [18] was 23.7 µM (active).
For `Cc1ccc2nc(-c3cccnc3SCC(=O)N3c4ccccc4CC3C)[nH]c2c1` (stereo not drawn), the IC50 [4] was > 100 µM (inactive), the IC50 [5] was 5.3 µM (active) and the IC50 [6] was 5.66 µM (active). The IC50 [7] was 1.56 µM (active), the IC50 [8] was 2.9 µM (active) and the IC50 [9] was 6.28 µM (active). The IC50 [10] was 4.22 µM (active), the EC50 [26] was 11.2 µM (active) and the IC50 [11] was 5.76 µM (active).
